Test results published in ChEMBL document CHEMBL1201862, “PubChem BioAssay data set” (2004).
Active and inactive are the calls of the source.

Assays:
[1] = biological target: Nonstructural protein 1 (Influenza A virus, UniProt Q194T2); assay type: functional, Influenza A virus (A/California/07/2009(H1N1))
[2] = biological target: T1, E3 ubiquitin-protein ligase XIAP (Homo sapiens, UniProt P98170); test: small molecules displacing peptide from XIAP – biochemical, IAP family, fluorescence polarization (AID 1018); assay type: functional
T1 sequence (P98170 whole entry): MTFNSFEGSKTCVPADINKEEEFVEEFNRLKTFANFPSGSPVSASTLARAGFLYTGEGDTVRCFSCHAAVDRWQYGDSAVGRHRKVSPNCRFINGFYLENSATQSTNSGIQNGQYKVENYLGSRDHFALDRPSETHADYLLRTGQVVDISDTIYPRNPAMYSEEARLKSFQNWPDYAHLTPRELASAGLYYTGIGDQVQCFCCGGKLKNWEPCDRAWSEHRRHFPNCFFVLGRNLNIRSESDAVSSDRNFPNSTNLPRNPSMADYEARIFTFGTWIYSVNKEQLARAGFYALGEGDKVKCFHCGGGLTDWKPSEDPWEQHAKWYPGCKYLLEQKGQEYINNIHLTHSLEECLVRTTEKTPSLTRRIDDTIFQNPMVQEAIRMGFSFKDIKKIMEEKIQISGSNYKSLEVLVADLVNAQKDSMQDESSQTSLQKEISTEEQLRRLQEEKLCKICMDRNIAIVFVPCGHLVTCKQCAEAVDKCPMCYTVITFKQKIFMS

[3] = test system: H9c2; test: cells; assay type: functional, cell-based; conditions: Rattus norvegicus, H9c2, Myocardium;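 also: confirmatory concentration-response retest of ultra-high-throughput screening hits for modulation of myocardial damage; cell death induced by hydrogen peroxide oxidative stress; compound pretreatment for 60 min then peroxide exposure for 2 h; potency is for protecting the cells against peroxide damage rather than for killing them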
[4] = biological target: T1, E3 ubiquitin-protein ligase XIAP; test: Counter Screen using XIAP-Bir3 for Chemical Antagonists of Bir1/2 domains of IAP-family anti-apoptotic proteins. [Related pubchem assays (depositor defined):AID1018, AID1449, AID1514, AID1638, AID1749, AID1750, AID488957, AID488963]
[5] = test system: HEK293; test: cells; assay type: functional, cell-based; conditions: Homo sapiens
[6] = test system: Streptococcus sp. 'group A'; test: Streptococcus pyogenes SK(-)GAS viability under kanamycin – luminescence, BacTiterGlo, confirmation, counter-screen for streptokinase expression inhibitor project, dose response (AID 1900); assay type: functional, organism-based
[7] = biological target: T2, Streptokinase A (Streptococcus pyogenes serotype M1, UniProt P10520); test: viability-normalized secreted streptokinase activity reduction – plasminogen activation absorbance, OD405, dose response (AID 1914); assay type: functional, Streptococcus pyogenes M1 GAS;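 also: secreted streptokinase activity via plasminogen activation per viability signal from cell pellet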
T2 sequence (P10520 whole entry): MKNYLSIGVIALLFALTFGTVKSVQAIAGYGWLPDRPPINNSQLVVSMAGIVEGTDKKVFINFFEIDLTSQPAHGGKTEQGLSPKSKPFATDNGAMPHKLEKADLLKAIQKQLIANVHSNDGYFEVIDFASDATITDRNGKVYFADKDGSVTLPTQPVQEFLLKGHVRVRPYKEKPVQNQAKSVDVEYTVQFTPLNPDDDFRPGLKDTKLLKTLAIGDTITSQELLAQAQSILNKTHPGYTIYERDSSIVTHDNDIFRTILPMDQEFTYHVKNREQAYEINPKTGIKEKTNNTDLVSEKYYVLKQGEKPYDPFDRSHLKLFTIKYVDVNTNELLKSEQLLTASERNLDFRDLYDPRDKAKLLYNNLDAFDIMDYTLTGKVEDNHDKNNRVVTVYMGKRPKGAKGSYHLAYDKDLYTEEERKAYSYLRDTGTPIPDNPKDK

[8] = test system: HEK293; test: cells; assay type: functional, cell-based; conditions: Homo sapiens; remark: listed apart in the source
[9] = test system: HEK293; test: NOD2 signaling inhibitors in MDP-stimulated cells, cell-based, uHTS, luminescence (AID 2001); assay type: functional; conditions: Homo sapiens
[10] = biological target: Nucleotide-binding oligomerization domain-containing protein 2 (Homo sapiens, UniProt Q9HC29); test: inhibition of NOD2-driven NF-kB reporter – cell-based, luminescence, uHTS, HEK293 (AID 1566); assay type: functional
Chain of Nucleotide-binding oligomerization domain-containing protein 2 (Q9HC29 whole entry, the tested form may be a part): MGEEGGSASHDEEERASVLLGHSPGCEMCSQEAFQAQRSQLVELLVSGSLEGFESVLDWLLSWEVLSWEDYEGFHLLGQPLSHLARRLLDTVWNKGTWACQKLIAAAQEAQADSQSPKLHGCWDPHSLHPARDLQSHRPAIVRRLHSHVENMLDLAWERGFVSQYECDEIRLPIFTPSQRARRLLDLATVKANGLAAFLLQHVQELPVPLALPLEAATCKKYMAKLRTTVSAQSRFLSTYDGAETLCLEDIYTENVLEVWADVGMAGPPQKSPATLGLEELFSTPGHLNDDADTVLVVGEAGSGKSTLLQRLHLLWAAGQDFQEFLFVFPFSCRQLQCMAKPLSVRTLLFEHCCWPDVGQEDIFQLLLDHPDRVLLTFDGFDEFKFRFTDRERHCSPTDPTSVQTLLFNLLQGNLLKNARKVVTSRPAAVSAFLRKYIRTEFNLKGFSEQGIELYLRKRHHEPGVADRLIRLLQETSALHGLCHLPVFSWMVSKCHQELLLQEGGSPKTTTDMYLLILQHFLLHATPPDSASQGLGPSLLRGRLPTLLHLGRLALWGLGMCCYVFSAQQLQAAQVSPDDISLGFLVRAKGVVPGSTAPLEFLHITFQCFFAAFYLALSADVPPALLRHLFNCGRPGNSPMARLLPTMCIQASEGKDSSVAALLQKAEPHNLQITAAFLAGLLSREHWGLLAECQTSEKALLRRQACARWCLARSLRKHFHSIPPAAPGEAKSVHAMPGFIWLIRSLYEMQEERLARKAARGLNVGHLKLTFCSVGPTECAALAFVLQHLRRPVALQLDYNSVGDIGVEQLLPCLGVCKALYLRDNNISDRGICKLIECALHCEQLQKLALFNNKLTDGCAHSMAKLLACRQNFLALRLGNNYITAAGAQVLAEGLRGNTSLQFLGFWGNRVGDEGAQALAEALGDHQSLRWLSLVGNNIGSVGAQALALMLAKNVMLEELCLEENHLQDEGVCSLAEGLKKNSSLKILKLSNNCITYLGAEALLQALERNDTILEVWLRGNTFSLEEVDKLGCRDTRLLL

[11] = Luminescence Cell-Based Dose Retest to Confirm Inhibitors of Cancer Stem Cells. [Related pubchem assays (depositor defined):AID2717, AID2721]; assay type: functional; conditions: Homo sapiens
[12] = test system: HEK293; test: inhibition of NOD1-driven NF-kB reporter – cell-based, luminescence, uHTS, primary screen (AID 1578); assay type: functional; conditions: Homo sapiens
[13] = test system: Streptococcus; test: GAS UMAA2166 growth inhibition – luminescence, BacTiterGlo, counter-screen for streptokinase expression inhibitor project, dose response (AID 1915); assay type: functional, organism-based;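 also: potency for reduction of bacterial viability or growth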
[14] = test system: HEK293; test: cells; assay type: functional, cell-based; conditions: Homo sapiens; remark: listed apart in the source
[15] = biological target: Disintegrin and metalloproteinase domain-containing protein 17 (Homo sapiens, UniProt P78536); test: inhibition of ADAM17 substrate cleavage – biochemical, quenched FRET substrate, counter-screen for ADAM10 exosite inhibitor project, dose response (AID 743253)
Chain of Disintegrin and metalloproteinase domain-containing protein 17 (P78536 whole entry, the tested form may be a part): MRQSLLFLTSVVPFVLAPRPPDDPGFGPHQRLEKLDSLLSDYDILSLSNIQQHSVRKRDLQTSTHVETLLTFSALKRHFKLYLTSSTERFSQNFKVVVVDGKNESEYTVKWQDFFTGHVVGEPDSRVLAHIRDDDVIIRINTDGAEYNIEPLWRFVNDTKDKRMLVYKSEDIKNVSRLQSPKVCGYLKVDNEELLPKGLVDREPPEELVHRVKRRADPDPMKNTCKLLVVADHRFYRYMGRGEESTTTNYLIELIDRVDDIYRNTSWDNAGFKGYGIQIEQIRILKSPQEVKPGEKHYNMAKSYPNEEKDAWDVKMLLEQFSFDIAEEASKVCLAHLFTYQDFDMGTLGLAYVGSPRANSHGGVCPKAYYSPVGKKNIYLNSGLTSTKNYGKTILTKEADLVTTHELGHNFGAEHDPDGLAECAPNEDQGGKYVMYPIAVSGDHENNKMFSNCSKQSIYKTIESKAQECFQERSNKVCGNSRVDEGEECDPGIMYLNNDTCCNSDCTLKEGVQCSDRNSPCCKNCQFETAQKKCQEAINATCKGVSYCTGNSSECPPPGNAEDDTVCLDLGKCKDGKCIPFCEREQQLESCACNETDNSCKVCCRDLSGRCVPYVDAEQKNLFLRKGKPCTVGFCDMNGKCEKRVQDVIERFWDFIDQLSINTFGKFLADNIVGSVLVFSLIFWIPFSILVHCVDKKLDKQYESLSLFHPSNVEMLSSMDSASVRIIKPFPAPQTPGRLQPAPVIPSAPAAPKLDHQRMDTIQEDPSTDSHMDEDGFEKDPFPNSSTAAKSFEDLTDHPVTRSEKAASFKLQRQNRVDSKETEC

[16] = biological target: T3, Carboxy-terminal domain RNA polymerase II polypeptide A small phosphatase 1 (Homo sapiens, UniProt Q9GZU7); test: CTDSP1 inhibitors, concentration-response, biochemical, absorbance readout, ultra-high-throughput screen actives (AID 540297); assay type: functional
T3 sequence (Q9GZU7 whole entry): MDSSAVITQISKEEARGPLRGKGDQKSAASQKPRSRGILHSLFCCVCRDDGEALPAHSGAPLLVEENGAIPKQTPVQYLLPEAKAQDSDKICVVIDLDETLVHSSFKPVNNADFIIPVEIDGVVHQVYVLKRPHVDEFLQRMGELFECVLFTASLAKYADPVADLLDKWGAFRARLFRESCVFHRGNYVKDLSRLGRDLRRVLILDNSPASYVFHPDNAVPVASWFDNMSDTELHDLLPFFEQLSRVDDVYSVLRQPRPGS

[17] = biological target: T4, Bcl-2-like protein 10 (Homo sapiens, UniProt Q9HD36); test: Bcl-B/TR3 peptide binding disruption – biochemical, fluorescence polarization, FITC-TR3 peptide, selectivity assay for Bfl-1 inhibitor project, primary screen (AID 748);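 also: fluorescence polarization from a fluorescein-labelled TR3 peptide binding purified Bcl-B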
T4 sequence (Q9HD36 whole entry): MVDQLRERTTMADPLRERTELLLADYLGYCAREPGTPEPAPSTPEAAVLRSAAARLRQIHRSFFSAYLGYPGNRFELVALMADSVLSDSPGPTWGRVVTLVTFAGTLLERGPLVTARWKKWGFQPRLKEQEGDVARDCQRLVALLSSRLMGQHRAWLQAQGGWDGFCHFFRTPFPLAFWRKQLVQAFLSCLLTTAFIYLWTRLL

[18] = biological target: Estrogen receptor beta (Homo sapiens, UniProt Q92731);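 also: recombinant ER-beta bound to coactivator SRC1 peptide in presence of estradiol agonist; inhibitors block coactivator peptide binding and lower the FRET signal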
Chain of Estrogen receptor beta (Q92731 whole entry): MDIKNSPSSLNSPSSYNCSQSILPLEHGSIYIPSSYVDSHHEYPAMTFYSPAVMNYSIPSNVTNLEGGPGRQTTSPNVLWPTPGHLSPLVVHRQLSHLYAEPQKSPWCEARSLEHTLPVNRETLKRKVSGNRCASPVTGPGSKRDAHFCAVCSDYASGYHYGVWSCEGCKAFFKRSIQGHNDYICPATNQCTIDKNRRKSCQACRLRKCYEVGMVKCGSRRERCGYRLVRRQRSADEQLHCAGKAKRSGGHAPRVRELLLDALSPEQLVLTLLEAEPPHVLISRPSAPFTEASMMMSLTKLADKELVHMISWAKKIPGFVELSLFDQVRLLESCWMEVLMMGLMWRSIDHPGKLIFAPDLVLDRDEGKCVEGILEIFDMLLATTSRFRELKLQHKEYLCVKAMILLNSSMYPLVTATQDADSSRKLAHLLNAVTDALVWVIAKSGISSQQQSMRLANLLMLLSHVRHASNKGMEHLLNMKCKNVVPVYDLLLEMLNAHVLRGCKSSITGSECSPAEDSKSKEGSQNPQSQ

[19] = biological target: T5, Replicative DNA helicase DnaB (Mycobacterium tuberculosis, UniProt P9WMR3); test: DnaB intein splicing inhibitors, dose response, biochemical, cell-free fluorescence (AID 449749); assay type: functional
T5 sequence (P9WMR3 whole entry): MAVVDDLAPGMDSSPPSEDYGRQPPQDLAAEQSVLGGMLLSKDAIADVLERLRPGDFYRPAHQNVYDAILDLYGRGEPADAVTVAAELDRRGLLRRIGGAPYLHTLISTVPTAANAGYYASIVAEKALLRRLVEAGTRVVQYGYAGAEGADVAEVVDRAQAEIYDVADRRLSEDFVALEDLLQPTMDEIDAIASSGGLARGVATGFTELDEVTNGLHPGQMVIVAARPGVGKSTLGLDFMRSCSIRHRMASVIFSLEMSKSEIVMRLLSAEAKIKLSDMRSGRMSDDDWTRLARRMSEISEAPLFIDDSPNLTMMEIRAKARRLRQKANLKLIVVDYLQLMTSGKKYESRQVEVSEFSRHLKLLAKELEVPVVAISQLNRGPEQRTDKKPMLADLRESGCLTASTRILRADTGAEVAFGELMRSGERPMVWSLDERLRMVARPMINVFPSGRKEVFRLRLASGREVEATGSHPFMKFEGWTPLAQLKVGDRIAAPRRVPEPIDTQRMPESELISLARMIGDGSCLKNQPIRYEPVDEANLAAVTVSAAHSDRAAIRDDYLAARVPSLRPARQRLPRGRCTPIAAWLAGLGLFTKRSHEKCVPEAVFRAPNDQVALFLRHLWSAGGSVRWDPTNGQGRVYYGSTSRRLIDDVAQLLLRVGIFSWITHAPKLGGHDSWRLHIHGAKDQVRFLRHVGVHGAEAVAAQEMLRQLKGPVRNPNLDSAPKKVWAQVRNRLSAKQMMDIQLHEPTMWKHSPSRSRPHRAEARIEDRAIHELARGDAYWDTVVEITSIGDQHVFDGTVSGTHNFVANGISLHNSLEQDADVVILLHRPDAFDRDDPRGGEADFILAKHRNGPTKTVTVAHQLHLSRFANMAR

[20] = test system: BJ; test: cells; assay type: functional, cell-based; conditions: Homo sapiens
[21] = test system: BJ; test: BJ-TERT fibroblast viability loss – cell-based, RAS-independent, luminescence, dose response (AID 1933); assay type: functional; conditions: Homo sapiens
[22] = biological target: T6, Protein RecA (Mycobacterium tuberculosis, UniProt P9WHJ3); test: Fluorescence Cell-Free Homogeneous Dose Retest to Identify Inhibitors of RecA-Intein Splicing Activity. [Related pubchem assays (depositor defined):AID2097, AID2223, AID489010, AID492950]; assay type: functional
T6 sequence (P9WHJ3 whole entry): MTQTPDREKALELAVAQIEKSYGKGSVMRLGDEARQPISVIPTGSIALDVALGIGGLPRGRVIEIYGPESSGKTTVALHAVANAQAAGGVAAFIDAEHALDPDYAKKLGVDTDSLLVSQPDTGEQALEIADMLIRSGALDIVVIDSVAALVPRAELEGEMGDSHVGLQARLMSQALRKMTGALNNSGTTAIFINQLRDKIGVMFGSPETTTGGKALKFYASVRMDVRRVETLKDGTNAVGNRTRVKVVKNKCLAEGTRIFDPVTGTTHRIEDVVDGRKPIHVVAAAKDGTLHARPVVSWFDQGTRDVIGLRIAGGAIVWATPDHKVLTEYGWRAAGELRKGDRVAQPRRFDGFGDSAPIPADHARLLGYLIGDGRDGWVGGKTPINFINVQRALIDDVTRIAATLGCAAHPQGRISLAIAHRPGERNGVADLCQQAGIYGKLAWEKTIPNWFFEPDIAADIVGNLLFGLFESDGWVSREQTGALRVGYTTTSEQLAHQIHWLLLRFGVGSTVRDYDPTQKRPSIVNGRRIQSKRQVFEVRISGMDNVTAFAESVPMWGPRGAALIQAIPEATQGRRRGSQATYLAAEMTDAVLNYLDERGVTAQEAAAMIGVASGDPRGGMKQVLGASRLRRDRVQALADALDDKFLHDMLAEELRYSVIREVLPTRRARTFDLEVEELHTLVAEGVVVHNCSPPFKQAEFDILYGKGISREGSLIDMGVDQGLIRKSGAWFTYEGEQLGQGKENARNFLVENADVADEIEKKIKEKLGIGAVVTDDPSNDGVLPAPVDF

[23] = DRD fibroblast viability loss – cell-based, non-viral oncogenic, luminescence, dose response (AID 1934); assay type: functional; conditions: Homo sapiens
[24] = test system: BJ; test: BJ-TERT-LT-ST fibroblast viability loss – cell-based, RAS-independent, luminescence, dose response (AID 1935); assay type: functional; conditions: Homo sapiens;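 also: BJ fibroblasts immortalized with TERT plus LT and ST oncogenes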
[25] = NIH-3T3 fibroblast cytotoxicity, dose response, cytotoxicity control, cell-based, fluorescence, Alamar Blue, secondary assay (AID 2327); assay type: functional;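 also: NIH-3T3 mouse fibroblasts cultured with fluconazole at 8 µg/mL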
[26] = decrease of insulin promoter-GFP reporter – imaging, high-content screening, mouse beta cells (AID 1628); assay type: functional; conditions: MIN6
[27] = fluconazole-exposed Candida albicans growth modulators – fluorescence, retest, confirmation (AID 2467); assay type: functional, cell-based
[28] = NIH3T3 cell viability loss – ATP luminescence, mouse fibroblasts, counter-screen, dose response (AID 2010); assay type: functional, cell-based;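 also: cells exposed to compound for about 90 hours before reading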
[29] = biological target: Protein Wnt-3a (Mus musculus, UniProt P27467); test: antagonism of Wnt3a pathway luciferase reporter – Wnt-LIGHT cells, luminescence, selectivity assay for Gli-SUFU antagonist project, dose response (AID 651570); assay type: functional; conditions: read-out: IC50_Mean;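 also: Wnt-LIGHT reporter cells stimulated with conditioned medium from Wnt3a-producing cells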
Chain of Protein Wnt-3a (P27467 whole entry): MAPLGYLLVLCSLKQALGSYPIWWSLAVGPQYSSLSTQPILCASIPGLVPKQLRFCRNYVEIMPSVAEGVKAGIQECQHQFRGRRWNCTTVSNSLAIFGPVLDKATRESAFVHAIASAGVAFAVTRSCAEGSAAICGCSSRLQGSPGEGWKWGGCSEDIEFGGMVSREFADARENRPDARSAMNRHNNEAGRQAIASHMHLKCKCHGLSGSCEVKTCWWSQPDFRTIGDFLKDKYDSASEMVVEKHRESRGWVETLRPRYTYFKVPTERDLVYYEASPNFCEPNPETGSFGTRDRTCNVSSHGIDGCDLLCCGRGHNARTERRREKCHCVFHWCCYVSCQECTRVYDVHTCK

[30] = MIN6 cell viability loss – mouse insulinoma, cytotoxicity control, dose response (AID 2122); assay type: functional;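 also: confirmatory high-throughput counterscreen run to flag cytotoxic compounds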
[31] = Trypanosoma cruzi growth suppression in host cells – NIH3T3 host cells, beta-gal luminescence, confirmation (AID 2044); assay type: functional, cell-based;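 also: intracellular parasites grown in NIH/3T3 mouse fibroblasts as host cells; luminescent beta-galactosidase reporter signal from transgenic T. cruzi replicating inside host cells; inhibitors lower the luminescence signal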
[32] = biological target: Kappa-type opioid receptor (Homo sapiens, UniProt P41145); test: SAR analysis of small molecule agonists of the kappa opioid receptor via a luminescent beta-arrestin assay - Set 3. [Related pubchem assays (depositor defined):AID1777, AID1785, AID1786, AID1966, AID2133, AID2136, AID2284, AID2500]; assay type: functional
Chain of Kappa-type opioid receptor (P41145 whole entry): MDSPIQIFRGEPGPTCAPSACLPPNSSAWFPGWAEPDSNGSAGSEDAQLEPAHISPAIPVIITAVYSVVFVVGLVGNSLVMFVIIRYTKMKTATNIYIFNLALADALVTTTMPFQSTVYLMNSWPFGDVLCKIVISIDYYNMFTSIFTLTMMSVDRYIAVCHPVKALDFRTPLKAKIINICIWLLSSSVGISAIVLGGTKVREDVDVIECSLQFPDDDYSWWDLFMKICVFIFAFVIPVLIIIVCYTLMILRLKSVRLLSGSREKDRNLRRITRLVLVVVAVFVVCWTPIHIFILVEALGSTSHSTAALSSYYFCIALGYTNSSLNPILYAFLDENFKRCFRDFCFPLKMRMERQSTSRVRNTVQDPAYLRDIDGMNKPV

Chain of Nonstructural protein 1 (Q194T2 whole entry): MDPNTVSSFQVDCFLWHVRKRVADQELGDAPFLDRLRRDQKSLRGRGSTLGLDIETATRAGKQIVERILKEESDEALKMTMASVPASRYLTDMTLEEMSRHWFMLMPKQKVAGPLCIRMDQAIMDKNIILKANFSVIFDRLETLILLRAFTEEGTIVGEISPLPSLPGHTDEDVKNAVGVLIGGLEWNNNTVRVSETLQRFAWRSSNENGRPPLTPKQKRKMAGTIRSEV

SMILES: O=C(CN1C(=O)CCC1=O)Nc1nc(-c2ccccn2)cs1
- IC50 [1]: 4.83 µM (active)
- IC50 [2]: > 100 µM (not active)
- IC50 [3]: 33.4 µM (inactive)
- IC50 [4]: > 100 µM (inactive)

SMILES: O=C(COC(=O)C(Cc1ccccc1)NC(=O)c1ccco1)NC1CC1 (configuration not stated)
- IC50 [2]: > 100 µM (not active)
- IC50 [4]: > 100 µM (inactive)

SMILES: CCOC(=O)N1CCC(=NNC(=O)c2ccccc2F)CC1
- IC50 [2]: > 100 µM (not active)
- IC50 [4]: > 100 µM (inactive)

SMILES: COc1ccc(-c2c[nH]nc2-c2ccc(OCc3ccccc3)cc2O)cc1
- IC50 [5]: 1.84 µM (active)
- EC50 [6]: 2.68 µM (active)
- EC50 [7]: > 150 µM (inconclusive)
- IC50 [8]: > 20 µM (inactive)
- IC50 [9]: 3.21 µM (active)
- EC50 [10]: 2.22 µM (active)
- AC50 [11]: 6.84 µM (active)
- EC50 [12]: 12.2 µM (active)
- EC50 [13]: 17.7 µM (active)
- IC50 [14]: > 20 µM (inactive)
- IC50 [15]: > 69.5 µM (inactive)

SMILES: COc1ccccc1-c1nnc2sc(-c3cnccn3)nn12
- IC50 [16]: 9.06 µM (active)
- IC50 [17]: 28.5 µM (active)
- IC50 [18]: 4.15 µM (active)

SMILES: Cc1cccc(CN2CCN(C(=O)CCl)CC2)c1
- AC50 [19]: 21.4 µM (active)
- IC50 [5]: 13.9 µM (active)
- EC50 [20]: > 150 µM (not active)
- EC50 [21]: 9.64 µM (inconclusive)
- IC50 [8]: > 20 µM (inactive)
- IC50 [9]: 16.7 µM (inactive)
- EC50 [10]: > 20 µM (inactive)
- EC50 [22]: 20.2 µM (active)
- EC50 [23]: 31.2 µM (active)
- EC50 [12]: > 20 µM (inactive)
- EC50 [24]: > 150 µM (inconclusive)
- IC50 [14]: > 20 µM (inactive)

SMILES: CC(C)CCOC(=O)C[N+](C)(C)CCOC1CC2CCC1(C)C2(C)C (configuration not stated)
- EC50 [25]: > 160 µM (inactive)
- IC50 [26]: 0.643 µM (active)
- EC50 [27]: 1.3 µM (active)
- EC50 [28]: > 60 µM (not active)
- IC50 [29]: 5.09 µM (active)
- IC50 [30]: < 0.25 µM (active)
- EC50 [31]: 0.286 µM (active)

SMILES: Clc1ccc(CSc2nnc(-c3ccccn3)n2Cc2ccccc2Cl)cc1Cl
- EC50 [32]: 11.8 µM (inactive)

SMILES: Cc1coc2c1C(=O)C(=O)c1c-2ccc2c(C)cccc12 [TANSHINONE I]
- EC50 [6]: 4.65 µM (active)
- EC50 [7]: > 150 µM (not active)
- IC50 [26]: 3.91 µM (active)
- IC50 [30]: 2.8 µM (active)
- EC50 [13]: 7.63 µM (active)
